Experimental data reported in PMC7340670, “Phase I study of TAS-115, a novel oral multi-kinase inhibitor, in patients with advanced solid tumors” (Investigational New Drugs, 2019).

What was measured:
advanced solid tumors = assay: Antitumor effect by RECIST Version 1.1; type: in vivo, human
Description: (§1) The secondary objectives were to investigate the PK profile, safety, tolerability, antitumor activity, and pharmacodynamic profile of TAS-115. AEs were graded according to the CTCAE Version 4.03. Response was assessed by radiologic imaging at 6 and 12 weeks from the first dose, and every 12 weeks thereafter. Antitumor effect was evaluated by investigators using Response Evaluation Criteria in Solid Tumors (RECIST) Version 1.1 [17]. If a patient had bone lesions, evaluation was performed using bone scintigraphy and bone scan index (BSI) were calculated by BONENAVI® software (FUJIFILM Toyama Chemical, Co., Ltd., Japan). BSI response was defined as ≥30% reduction in BSI [18]. An exploratory objective was to assess changes in protein levels of soluble MET (sMET), VEGF, and soluble VEGFR2 (sVEGFR2) in plasma, and HGF in serum as pharmacodynamic markers.

bone lesions = assay: Bone scintigraphy / bone scan index (BSI) response; type: in vivo, human
Description: as §1

soluble MET (sMET) = assay: Pharmacodynamic marker: sMET in plasma; type: in vivo, human
Description: as §1
For pharmacodynamic analyses, blood samples were collected on Days 1 and 22 (before dosing, each) in part 1, and Days 1 (pre-dosing) and 19 (pre- and post 6 h) in part 2 and the expansion part. Patients provided written informed consent to provide blood samples for exploratory pharmacodynamics assessments.
The planned sample size was up to 90 patients, and it was not based on the formal calculation because of experimental phase I trial. For pharmacodynamics parameters, P values were calculated using the paired t-test for measured values from merged doses. The data cut-off date for the analyses presented in this report was August 19, 2018. This study is registered with Japan Pharmaceutical Information Center Clinical Trial registry, number JapicCTI-132333.

soluble VEGFR2 (sVEGFR2) = assay: Pharmacodynamic marker: sVEGFR2 in plasma; type: in vivo, human
Description: as §1
For pharmacodynamic analyses, blood samples were collected on Days 1 and 22 (before dosing, each) in part 1, and Days 1 (pre-dosing) and 19 (pre- and post 6 h) in part 2 and the expansion part. […]
The planned sample size was up to 90 patients, and it was not based on the formal calculation because of experimental phase I trial. For pharmacodynamics parameters, P values were calculated using the paired t-test for measured values from merged doses. […]

192-panel kinase = biological target: 192-panel kinase; design: method as in PMID 24140932; details: 192-panel kinase assay; read-out: IC50 for 53 (28%) kinases, including MET, AXL, c-kit, Src, PDGFR-alpha and –beta; cited from earlier work
patients = test system: patients; design: method as in data on file; details: tablet formulation, ref data on file, cited from earlier work

Q: With `CNC(=O)c1cc2c(Oc3ccc(NC(=S)NC(=O)Cc4ccccc4)cc3F)ccnc2cc1OC` [TAS-115] as the compound, how does the “antitumor effect in a patient with bladder cancer with metastases” value (advanced solid tumors; 650 mg 5-on/2-off discontinued at week 7, after discontinuation without further antitumor treatment) read?
A: the lung metastatic lesions disappeared

Q: What about the “complete or partial response by RECIST evaluation” value (advanced solid tumors; all parts) of the same compound?
A: no patients who showed complete or partial response

Q: What about the “minor tumor shrinkage of target lesions” value (advanced solid tumors; patients determined as having progressive disease (PD)) of the same compound?
A: four patients

Q: What about the “antitumor effect in a patient with CRPC with multiple bone metastases” value (bone lesions; 650 mg 5-on/2-off) of the same compound?
A: notable improvement was observed in the bone scan

Q: And the “antitumor effect in a patient with epithelioid sarcoma with multiple metastases” value (bone lesions; 650 mg 5-on/2-off, 6 weeks after the first administration)?
A: marked decrease of hot spots on bone scans and reduction in fluorodesoxyglucose uptake

Q: And the “BSI response rate (≥30% reduction in BSI)” value (bone lesions; patients with bone lesions, 14 of 25)?
A: 56.0%

Q: What about the “change of sMET in plasma” value (soluble MET (sMET); Day 19, 6 h after administration, part 2 and expansion part, P = .0055) of the same compound?
A: significant increase

Q: And the “change of sMET in plasma” value (soluble MET (sMET); Day 19 pre-dose, part 2 and expansion part, P = .0015)?
A: significant increase

Q: What about the “change of sMET in plasma” value (soluble MET (sMET); Day 22 in part 1, P = .0031) of the same compound?
A: significant increase

Q: What about the “change of VEGFR2” value (soluble VEGFR2 (sVEGFR2); 6 h post-dose on Day 19 compared with pre-dose on Day 19, P = .0204) of the same compound?
A: decrease

Q: What about the “marked alterations of sVEGFR2 from Day 1” value (soluble VEGFR2 (sVEGFR2); in vivo) of the same compound?
A: not observed

Q: What about the IC50 (192-panel kinase) of the same compound?
A: < 1 µM

Q: And the absorption (patients)?
A: saturated between 100 and 1200 mg

Q: What about the “dose-limiting toxicities (DLTs)” value (patients; ten patients, 100, 200, 400, 800, 1200 mg SID and 400 mg BID) of the same compound?
A: no dose-limiting toxicities (DLTs) were observed
